{"source": "the supplement of paper PMC10307832", "experiment_in_all_cases": "relative viability (nuclei count vs DMSO), 5 days (fraction); higher = more cells survive", "key": {"Irinotecan + Linsitinib": {"compound": "CCc1c2c(nc3ccc(OC(=O)N4CCC(N5CCCCC5)CC4)cc13)-c1cc3c(c(=O)n1C2)COC(=O)[C@]3(O)CC [Irinotecan] + C[C@]1(O)C[C@@H](c2nc(-c3ccc4ccc(-c5ccccc5)nc4c3)c3c(N)nccn32)C1 [Linsitinib] (partner 1 µM)", "in_short": "(§1)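 One day after seeding in 1536-well plates, lung cancer cell lines were dosed by pin tool. Dosing was either single-drug or a fixed anchor-drug dose plus five library-drug doses (not always all listed) in √10 steps. After 5 days, nuclei were stained in one fix-and-stain step and counted on 4× images, and relative viability is the nuclei count of treated wells over that of vehicle wells, given as the median of duplicate plates.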"}, "RU-SKI 43 + Trametinib": {"compound": "CC[C@@H](C)CNCC(=O)N1CCC2=C([C@@H]1COC3=CC=CC(=C3)C)C=CS2 [RU-SKI 43] + CC(=O)Nc1cccc(-n2c(=O)n(C3CC3)c(=O)c3c(Nc4ccc(I)cc4F)n(C)c(=O)c(C)c32)c1 [Trametinib] (partner 0.02 µM)", "in_short": "as §1"}, "RU-SKI 43 + Pictilisib": {"compound": "CC[C@@H](C)CNCC(=O)N1CCC2=C([C@@H]1COC3=CC=CC(=C3)C)C=CS2 [RU-SKI 43] + CS(=O)(=O)N1CCN(Cc2cc3nc(-c4cccc5[nH]ncc45)nc(N4CCOCC4)c3s2)CC1 [Pictilisib] (partner 1 µM)", "in_short": "as §1"}, "MK-8033 + Foretinib": {"compound": "Cn1cc(-c2cnc3ccc4ccc(CS(=O)(=O)NCc5ccccn5)cc4c(=O)c3c2)cn1 [MK-8033] + COc1cc2c(Oc3ccc(NC(=O)C4(C(=O)Nc5ccc(F)cc5)CC4)cc3F)ccnc2cc1OCCCN1CCOCC1 [Foretinib] (partner 0.25 µM)", "in_short": "as §1"}}}
{"cell line": "UMC-11", "values": [{"measurement": "relative viability", "setting": "Irinotecan + Linsitinib; first compound 0.6325 µM", "result": 0.724}, {"measurement": "relative viability", "setting": "Irinotecan + Linsitinib; first compound 2 µM", "result": 0.49}, {"measurement": "relative viability", "setting": "Irinotecan + Linsitinib; first compound 6.325 µM", "result": 0.281}, {"measurement": "relative viability", "setting": "Irinotecan + Linsitinib; first compound 20 µM", "result": 0.22}, {"measurement": "relative viability", "setting": "RU-SKI 43 + Trametinib; first compound 0.1 µM", "result": 0.691}, {"measurement": "relative viability", "setting": "RU-SKI 43 + Trametinib; first compound 0.3162 µM", "result": 0.693}, {"measurement": "relative viability", "setting": "RU-SKI 43 + Trametinib; first compound 1 µM", "result": 0.742}, {"measurement": "relative viability", "setting": "RU-SKI 43 + Trametinib; first compound 3.162 µM", "result": 0.745}, {"measurement": "relative viability", "setting": "RU-SKI 43 + Trametinib; first compound 10 µM", "result": 0.401}, {"measurement": "relative viability", "setting": "RU-SKI 43 + Pictilisib; first compound 0.1 µM", "result": 0.958}, {"measurement": "relative viability", "setting": "RU-SKI 43 + Pictilisib; first compound 0.3162 µM", "result": 1.11}, {"measurement": "relative viability", "setting": "RU-SKI 43 + Pictilisib; first compound 1 µM", "result": 0.876}, {"measurement": "relative viability", "setting": "RU-SKI 43 + Pictilisib; first compound 3.162 µM", "result": 0.789}, {"measurement": "relative viability", "setting": "RU-SKI 43 + Pictilisib; first compound 10 µM", "result": 0.695}, {"measurement": "relative viability", "setting": "MK-8033 + Foretinib; first compound 0.02 µM", "result": 1.08}, {"measurement": "relative viability", "setting": "MK-8033 + Foretinib; first compound 0.06325 µM", "result": 1.04}, {"measurement": "relative viability", "setting": "MK-8033 + Foretinib; first compound 0.2 µM", "result": 0.989}, {"measurement": "relative viability", "setting": "MK-8033 + Foretinib; first compound 2 µM", "result": 1.08}]}
